Measurements published in PMC5161585 (Nature, 2016).
“Also recorded” adds a separate entry of the source.

Tests used:
κOR [1] = molecular target: T1, κOR (Homo sapiens, UniProt P41145); experiment: Gi/o Glosensor assay at κOR; type: cell-based
human μOR [2] = molecular target: T2, human μOR (Homo sapiens, UniProt P35372); experiment: β-arrestin-2 recruitment by BRET in HEK-293T cells; type: cell-based
mice [3] = experiment: Whole-body mouse plethysmography; type: in vivo; details: equi-analgesic doses: PZM21 40 mg/kg, TRV130 1.2 mg/kg, morphine 10 mg/kg
δOR [4] = molecular target: T3, δOR (Homo sapiens, UniProt P41143); experiment: Gi/o Glosensor assay at δOR; type: cell-based
mice [5] = experiment: Conditioned place preference; type: in vivo, mouse; details: morphine 10 mg/kg, PZM21 20 mg/kg, TRV130 1.2 mg/kg
[6] = Pharmacokinetics of PZM21, serum and brain levels; type: in vivo, mouse; details: 20 mg/kg subcutaneous, mice
mice [7] = experiment: Open field locomotor response; type: in vivo, mouse; details: morphine 10 mg/kg, PZM21 20 mg/kg
320 non-olfactory GPCRs = experiment: PRESTO-Tango GPCRome β-arrestin recruitment screen; type: cell-based; details: 10 μM screen, hits re-tested in full dose–response
C57BL/6J mice [8] = experiment: Hotplate assay subcategorized into affective and reflexive responses; type: in vivo, mouse; details: for analgesia on affective versus reflexive component of pain: morphine 10 mg/kg, PZM21 20 mg/kg
mice [9] = experiment: Formalin injection nociception assay; type: in vivo, mouse; details: morphine 10 mg/kg, PZM21 40 mg/kg
[10] = Metabolism in mouse liver microsomes; type: in vitro ADME; details: over one hour, 80 μM
Oprm1−/− mice = experiment: Hotplate assay in μOR knockout mice; type: in vivo, mouse; details: morphine 10 mg/kg, PZM21 20 mg/kg, 30 min
C57BL/6J mice [11] = experiment: Mouse hotplate analgesia assay; details: 15 min after the highest dose tested (40 mg/kg), subcutaneous
δOR [12] = molecular target: T3, δOR; experiment: Radioligand binding at δOR; details: read-out: δOR Ki
C57BL/6J mice [13] = experiment: Mouse tail-flick assay; details: in vivo
SSTR4 = SSTR4 (Homo sapiens, UniProt P31391); experiment: Gi/o Glosensor assay measuring SSTR4 activation; type: cell-based
κOR [14] = molecular target: T1, κOR; experiment: Radioligand binding at κOR; details: read-out: κOR Ki
mice [15] = experiment: Catalepsy bar test; type: in vivo, mouse; details: PZM21 20 mg/kg, morphine 10 mg/kg
mice [16] = experiment: Accumulated faecal boli quantification; type: in vivo, mouse; details: morphine 10 mg/kg, PZM21 20 mg/kg
nociceptin receptor = nociceptin receptor (Homo sapiens, UniProt P41146); experiment: Gi/o Glosensor assay at nociceptin receptor; type: cell-based
human μOR [17] = molecular target: T2, human μOR; experiment: BRET-based; type: cell-based; details: read-out: EC50 in CAMYEL-based Gi/o signalling assay
human μOR [18] = molecular target: T2, human μOR; experiment: Receptor internalization, PathHunter GPCR internalization assay in U2OS cells; type: cell-based

T2 sequence (P35372 whole entry): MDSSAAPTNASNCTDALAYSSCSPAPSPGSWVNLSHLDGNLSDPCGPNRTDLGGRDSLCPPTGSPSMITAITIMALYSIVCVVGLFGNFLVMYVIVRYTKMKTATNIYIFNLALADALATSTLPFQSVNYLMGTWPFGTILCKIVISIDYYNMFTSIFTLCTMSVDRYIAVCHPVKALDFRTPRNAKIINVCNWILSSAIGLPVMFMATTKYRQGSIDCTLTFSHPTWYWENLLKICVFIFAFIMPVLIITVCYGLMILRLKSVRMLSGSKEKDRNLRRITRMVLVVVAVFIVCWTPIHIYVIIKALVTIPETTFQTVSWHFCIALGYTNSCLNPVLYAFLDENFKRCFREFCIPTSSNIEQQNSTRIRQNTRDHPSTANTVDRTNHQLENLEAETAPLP
T3 sequence (P41143 whole entry): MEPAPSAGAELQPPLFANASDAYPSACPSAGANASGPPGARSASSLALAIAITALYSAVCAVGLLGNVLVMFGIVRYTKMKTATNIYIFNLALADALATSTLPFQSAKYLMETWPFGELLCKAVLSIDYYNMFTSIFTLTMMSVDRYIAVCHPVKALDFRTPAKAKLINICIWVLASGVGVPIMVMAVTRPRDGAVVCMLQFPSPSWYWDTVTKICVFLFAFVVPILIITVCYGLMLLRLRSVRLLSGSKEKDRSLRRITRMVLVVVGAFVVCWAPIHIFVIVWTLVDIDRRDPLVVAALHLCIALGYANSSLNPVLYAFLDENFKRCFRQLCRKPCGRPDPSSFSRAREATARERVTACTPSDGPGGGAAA
T1 sequence (P41145 whole entry): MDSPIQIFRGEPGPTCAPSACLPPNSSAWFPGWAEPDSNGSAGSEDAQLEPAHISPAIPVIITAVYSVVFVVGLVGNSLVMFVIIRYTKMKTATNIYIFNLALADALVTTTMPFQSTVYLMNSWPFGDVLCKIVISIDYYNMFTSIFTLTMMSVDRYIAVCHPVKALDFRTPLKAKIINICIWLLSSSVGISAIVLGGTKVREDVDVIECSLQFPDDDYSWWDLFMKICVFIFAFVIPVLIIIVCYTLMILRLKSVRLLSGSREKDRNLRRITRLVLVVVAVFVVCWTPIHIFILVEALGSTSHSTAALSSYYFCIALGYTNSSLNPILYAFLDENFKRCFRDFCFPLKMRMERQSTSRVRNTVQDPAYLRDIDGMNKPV
SSTR4, sequence (P31391 whole entry, species assumed): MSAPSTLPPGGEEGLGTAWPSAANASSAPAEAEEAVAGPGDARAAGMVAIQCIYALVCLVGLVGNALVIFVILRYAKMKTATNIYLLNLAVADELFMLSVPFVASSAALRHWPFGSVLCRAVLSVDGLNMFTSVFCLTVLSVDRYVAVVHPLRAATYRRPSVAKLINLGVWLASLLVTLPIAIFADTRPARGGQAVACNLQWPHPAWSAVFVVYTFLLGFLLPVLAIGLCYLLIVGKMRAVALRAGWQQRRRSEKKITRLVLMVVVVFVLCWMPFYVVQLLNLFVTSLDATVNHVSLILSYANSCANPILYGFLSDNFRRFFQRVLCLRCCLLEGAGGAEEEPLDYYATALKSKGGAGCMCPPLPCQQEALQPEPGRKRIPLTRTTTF
nociceptin receptor, sequence (P41146 whole entry, species assumed): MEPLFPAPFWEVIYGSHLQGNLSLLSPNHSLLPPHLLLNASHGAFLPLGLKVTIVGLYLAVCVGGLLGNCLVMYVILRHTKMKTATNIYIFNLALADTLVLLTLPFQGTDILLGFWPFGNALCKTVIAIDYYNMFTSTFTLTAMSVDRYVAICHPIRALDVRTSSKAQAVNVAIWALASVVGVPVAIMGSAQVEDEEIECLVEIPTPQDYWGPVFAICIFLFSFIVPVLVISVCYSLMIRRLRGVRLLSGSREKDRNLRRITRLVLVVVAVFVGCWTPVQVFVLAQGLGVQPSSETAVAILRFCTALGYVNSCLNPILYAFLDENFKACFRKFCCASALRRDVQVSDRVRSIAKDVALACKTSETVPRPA

With COC(=O)[C@@H]1C[C@H](OC(=O)c2ccccc2)C(=O)[C@H]2[C@@]1(C)CC[C@H]1C(=O)O[C@H](c3ccoc3)C[C@]21C [Herkinorin, herkinorin] the “κOR agonist activity (in words)” value (κOR [1]) was “potent agonists of the κOR” and the “arrestin recruitment in BRET assay in the absence of GRK2 overexpression” value (human μOR [2]) was “robustly recruits arrestin”.
For C[C@@H](Cc1ccsc1)NC(=O)NC[C@H](Cc1ccc(O)cc1)N(C)C [PZM21], the “effect on respiration frequency” value (mice [3]) was “almost undistinguishable from vehicle”, the “κOR agonist activity (in words)” value (κOR [1]) was “no detectable κOR or nociceptin receptor agonist activity” and the “δOR Gi/o (Glosensor) Emax” value (δOR [4]) was 78%. The EC50 (δOR [4]; read-out: δOR Gi/o (Glosensor) EC50) was 1900 nM, the conditioned place preference (mice [5]) was “does not induce a conditioned place preference response” and the “peak level in brain tissue” value [6] was 197 ng per g. The concomitant serum concentration ([6]; at brain peak) was 1,253 ng/ml, the “effect on locomotion in open-field assay” value (mice [7]) was “no apparent effect on locomotion versus vehicle” and the “agonism at other GPCRs” value (320 non-olfactory GPCRs) was “no potent activity was confirmed with a full dose–response experiment”. The duration of analgesia (C57BL/6J mice [8]; hotplate) was “up to 180 min”, the “analgesia on affective versus reflexive component of pain” value (C57BL/6J mice [8]) was “solely confers analgesia to the affective component of pain; also recorded: only modulates the attending (affective) component” and the “analgesia in formalin injection nociception assay” value (mice [9]) was “active in a formalin injection nociception assay”. For the same compound, the “metabolism by mouse liver microsomes” value [10] was 8%, the “analgesic response in hotplate assay in μOR knockout mice” value (Oprm1−/− mice) was “completely ablates the observed analgesic response” and the “per cent maximal possible effect (% MPE), hotplate” value (C57BL/6J mice [11]) was 87%. For the same compound, the Ki (δOR [12]) was 506 nM, the “analgesic effect in tail-flick assay” value (C57BL/6J mice [13]) was “no analgesic effect” and the “SSTR4 activation, cAMP inhibition” value (SSTR4) was “does not show a dose-dependent change in cAMP inhibition”. For the same compound, the Ki (κOR [14]) was 18 nM, the cataleptic effect (mice [15]) was “minimal cataleptic effect compared to morphine” and the “constipating effect (accumulated faecal boli)” value (mice [16]) was “constipating effect is substantially less than morphine”. The “nociceptin receptor agonist activity (in words)” value (nociceptin receptor) was “no detectable κOR or nociceptin receptor agonist activity”.
CN(C)[C@H](CNC(=O)NCCc1ccccc1)Cc1ccc(O)cc1 [PZM22] showed an EC50 (human μOR [17]) of 1.8 nM.
In the case of COc1ccsc1CNCC[C@@]1(c2ccccn2)CCOC2(CCCC2)C1 [TRV130], the “effect on respiration frequency” value (mice [3]) is reported as “significantly depresses respiration at 15 min”, the “κOR agonist activity (in words)” value (κOR [1]) is reported as “potent agonists of the κOR” and the conditioned place preference (mice [5]) is reported as “not significant relative to vehicle”. The μOR internalization (human μOR [18]) was “much decreased receptor internalization versus DAMGO and even morphine”.
For CN1CC[C@]23c4c5ccc(O)c4O[C@H]2[C@@H](O)C=C[C@H]3[C@H]1C5 [morphine, reference compound], the conditioned place preference (mice [5]) was “Place preference is induced”, the “analgesia on affective versus reflexive component of pain” value (C57BL/6J mice [8]) was “induces changes in both behaviours” and the “analgesia in formalin injection nociception assay” value (mice [9]) was “sustained analgesia”.
